Results from publication PMC11240139, “Exploring the antitumor potential of novel quinoline derivatives via tubulin polymerization inhibition in breast cancer; design, synthesis and molecular docking” (RSC Advances, 2024).

Key:
Type in all cases: cell-based
SN12C (renal cancer) = assay: NCI-60 SRB cytotoxicity screen; conditions: Homo sapiens, single dose 10 μM, read-out: growth inhibition (GI%)
OVCAR-3 (ovarian cancer) = assay: NCI-60 SRB cytotoxicity screen; conditions: Homo sapiens; OVCAR-3, single dose 10 μM; read-out: growth inhibition (GI%)
SK-MEL-5 (melanoma) = assay: NCI-60 SRB cytotoxicity screen; conditions: Homo sapiens; SK-MEL-5, single dose 10 μM; read-out: growth inhibition (GI%)
HCC-2998 (colon cancer) = assay: NCI-60 SRB cytotoxicity screen; conditions: Homo sapiens; HCC-2998, single dose 10 μM; read-out: growth inhibition (GI%)
SR (leukemia) = assay: NCI-60 SRB cytotoxicity screen; conditions: single dose 10 μM, read-out: growth inhibition (GI%)
CAKI-1 (renal cancer) = assay: NCI-60 SRB cytotoxicity screen; conditions: Homo sapiens; CAKI-1, single dose 10 μM; read-out: growth inhibition (GI%)
DU-145 (prostate cancer) = assay: NCI-60 SRB cytotoxicity screen; conditions: Homo sapiens; DU-145, single dose 10 μM; read-out: growth inhibition (GI%)
SNB-19 (CNS cancer) = assay: NCI-60 SRB cytotoxicity screen; conditions: Homo sapiens; SNB-19, single dose 10 μM; read-out: growth inhibition (GI%)
M14 (melanoma) = assay: NCI-60 SRB cytotoxicity screen; conditions: Homo sapiens; M14, single dose 10 μM; read-out: growth inhibition (GI%)
OVCAR-4 (ovarian cancer) = assay: NCI-60 SRB cytotoxicity screen; conditions: Homo sapiens; OVCAR-4, single dose 10 μM; read-out: growth inhibition (GI%)
LOX IMVI (melanoma) = assay: NCI-60 SRB cytotoxicity screen; conditions: Homo sapiens, single dose 10 μM, read-out: growth inhibition (GI%)
COLO 205 (colon cancer) = assay: NCI-60 SRB cytotoxicity screen; conditions: Homo sapiens; COLO 205, single dose 10 μM; read-out: growth inhibition (GI%)
[1] = tested on: MDA-MB-468 (breast cancer); assay: NCI-60 SRB cytotoxicity screen; conditions: Homo sapiens; MDA-MB-468, single dose 10 μM; read-out: growth inhibition (GI%)
Protocol: (§1) The cytotoxic activity of the synthesized quinoline derivatives was determined by the national cancer institute (NCI, Bethesda, Maryland, USA) against 60 different cancer cell lines at a single high dose (10^−5 M) in the full NCI 60 cell panel using the sulforhodamine B assay for cell viability evaluation. In summary, 5 × 10^3 cells were in 96-well plate and incubated in complete media for 24 h. Cells were treated with 100 μL of media containing each newly synthesized compound. After drug exposure, cells were fixed by replacing media with 150 μL of 10% TCA and incubated at 4 °C for 1 h. The TCA solution was removed, and the cells were washed 5 times with distilled water. Aliquots of 70 μL SRB solution (0.4% w/v) were added and incubated in a dark place at room temperature for 10 min. The plates were washed 3 times with 1% acetic acid and allowed to air-dry overnight. Then, 150 μL of TRIS (10 mM) was added to dissolve protein-bound SRB stain. The absorbance was measured at 540 nm.% Cytotoxicity = [1 − (AVx/AVNC)] × 100where AVx denotes the average absorbance of the sample well and AVNC denotes the average absorbance of the negative control.
The methodology of the NCI anticancer screening has been described in details at (http://www.dtp.nci.nih.gov). The anticancer assay was performed in full NCI 60 cell lines derived from nine tumor subpanels, including leukemia, lung, colon, CNS, melanoma, ovarian, renal, prostate, and breast cancer cell lines.
The cell lines were first cultured for 48 h, after being exposed to a single dosage of the compound. Using the protein-binding dye sulforhodamine B dye, cell proliferation and viability were evaluated (SRB assay). The results were presented for each chemical as GI%. Compound that met NCI criteria for substantial activity were further evaluated using a five-dose experiment. The NCI60 cell lines were treated with the chemicals in this assay at five different concentration levels (0.01, 0.1, 1, 10, and 100 μM).

RXF 393 (renal cancer) = assay: NCI-60 SRB cytotoxicity screen; conditions: Homo sapiens; RXF 393, single dose 10 μM; read-out: growth inhibition (GI%)
OVCAR-5 (ovarian cancer) = assay: NCI-60 SRB cytotoxicity screen; conditions: Homo sapiens; OVCAR-5, single dose 10 μM; read-out: growth inhibition (GI%)
[2] = tested on: 60 cancer cell lines (NCI); assay: NCI-60 single-dose screen, overall verdict over the panel; conditions: single dose 10 μM, whole panel
Protocol: as §1

MDA-MB-435 (melanoma) = assay: NCI-60 SRB cytotoxicity screen; conditions: Homo sapiens, MDA-MB-435, read-out: growth inhibition (GI%);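 note: growth inhibition in percent at a single 10 µM dose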
U251 (CNS cancer) = assay: NCI-60 SRB cytotoxicity screen; conditions: Homo sapiens, U-251; U251, single dose 10 μM; read-out: growth inhibition (GI%)
TK-10 (renal cancer) = assay: NCI-60 SRB cytotoxicity screen; conditions: Homo sapiens; TK-10, single dose 10 μM; read-out: growth inhibition (GI%)
[3] = tested on: NCI-H322M (non-small cell lung cancer); assay: NCI-60 SRB cytotoxicity screen; conditions: Homo sapiens, single dose 10 μM, read-out: growth inhibition (GI%)
SK-MEL-2 (melanoma) = assay: NCI-60 SRB cytotoxicity screen; conditions: Homo sapiens; SK-MEL-2, single dose 10 μM; read-out: growth inhibition (GI%)
HCT-116 (colon cancer) = assay: NCI-60 SRB cytotoxicity screen; conditions: Homo sapiens; HCT-116, single dose 10 μM; read-out: growth inhibition (GI%)
[4] = tested on: HOP-92 (non-small cell lung cancer); assay: NCI-60 SRB cytotoxicity screen; conditions: Homo sapiens; HOP-92, single dose 10 μM; read-out: growth inhibition (GI%)
SF-268 (CNS cancer) = assay: NCI-60 SRB cytotoxicity screen; conditions: Homo sapiens; SF-268, single dose 10 μM; read-out: growth inhibition (GI%)
SW-620 (colon cancer) = assay: NCI-60 SRB cytotoxicity screen; conditions: Homo sapiens; SW-620, single dose 10 μM; read-out: growth inhibition (GI%)

CCc1cccc2cc(C=CC(=O)c3ccc(F)cc3)c(Cl)nc12 [Compound 3d, 3-(2-Chloro-8-ethylquinolin-3-yl)-1-(4-fluorophenyl)prop-2-en-1-one]
inhibition at 10 µM (SN12C (renal cancer)): < 10%
inhibition at 10 µM (OVCAR-3 (ovarian cancer)): < 10%
inhibition at 10 µM (SK-MEL-5 (melanoma)): < 10%
inhibition at 10 µM (HCC-2998 (colon cancer)): < 10%
inhibition at 10 µM (SR (leukemia)): < 10%
inhibition at 10 µM (CAKI-1 (renal cancer)): 11.8%
inhibition at 10 µM (DU-145 (prostate cancer)): < 10%
inhibition at 10 µM (SNB-19 (CNS cancer)): < 10%
inhibition at 10 µM (M14 (melanoma)): < 10%
inhibition at 10 µM (OVCAR-4 (ovarian cancer)): < 10%
inhibition at 10 µM (LOX IMVI (melanoma)): < 10%
inhibition at 10 µM (COLO 205 (colon cancer)): < 10%
inhibition at 10 µM [1]: < 10%
inhibition at 10 µM (RXF 393 (renal cancer)): < 10%
inhibition at 10 µM (OVCAR-5 (ovarian cancer)): < 10%
cytotoxic activity over the cell lines (in words) [2]: low cytotoxic activity
inhibition at 10 µM (MDA-MB-435 (melanoma)): < 10%
inhibition at 10 µM (U251 (CNS cancer)): < 10%
inhibition at 10 µM (TK-10 (renal cancer)): < 10%
inhibition at 10 µM [3]: < 10%
inhibition at 10 µM (SK-MEL-2 (melanoma)): < 10%
inhibition at 10 µM (HCT-116 (colon cancer)): < 10%
inhibition at 10 µM [4]: < 10%
inhibition at 10 µM (SF-268 (CNS cancer)): < 10%
inhibition at 10 µM (SW-620 (colon cancer)): < 10%

CCc1cccc2cc(-c3cc(-c4ccc(Br)cc4)[nH]c(=S)c3C#N)c(Cl)nc12 [Compound 5e, 6-(4-Bromophenyl)-4-(2-chloro-8-ethylquinolin-3-yl)-2-thioxo-1,2-dihydropyridine-3-carbonitrile]
inhibition at 10 µM (SN12C (renal cancer)): < 10%
inhibition at 10 µM (OVCAR-3 (ovarian cancer)): < 10%
inhibition at 10 µM (SK-MEL-5 (melanoma)): < 10%
inhibition at 10 µM (HCC-2998 (colon cancer)): < 10%
inhibition at 10 µM (CAKI-1 (renal cancer)): 20.1%
inhibition at 10 µM (DU-145 (prostate cancer)): < 10%
inhibition at 10 µM (SNB-19 (CNS cancer)): < 10%
inhibition at 10 µM (M14 (melanoma)): 11%
inhibition at 10 µM (OVCAR-4 (ovarian cancer)): < 10%
inhibition at 10 µM (LOX IMVI (melanoma)): < 10%
inhibition at 10 µM (COLO 205 (colon cancer)): < 10%
inhibition at 10 µM [1]: < 10%
inhibition at 10 µM (RXF 393 (renal cancer)): < 10%
inhibition at 10 µM (OVCAR-5 (ovarian cancer)): < 10%
cytotoxic activity over the cell lines (in words) [2]: slight cytotoxic activity
inhibition at 10 µM (MDA-MB-435 (melanoma)): < 10%
inhibition at 10 µM (U251 (CNS cancer)): < 10%
inhibition at 10 µM (TK-10 (renal cancer)): < 10%
inhibition at 10 µM [3]: < 10%
inhibition at 10 µM (SK-MEL-2 (melanoma)): < 10%
inhibition at 10 µM (HCT-116 (colon cancer)): < 10%
inhibition at 10 µM [4]: < 10%
inhibition at 10 µM (SF-268 (CNS cancer)): < 10%
inhibition at 10 µM (SW-620 (colon cancer)): < 10%

CCc1cccc2cc(C3C=C(c4ccc(OC)cc4)NC(=S)N3)c(Cl)nc12 (stereo not shown) [Compound 6a, 4-(2-Chloro-8-ethylquinolin-3-yl)-6-(4-methoxyphenyl)-3,4-dihydropyrimidine-2(1H)-thione]
inhibition at 10 µM (SN12C (renal cancer)): < 10%
inhibition at 10 µM (OVCAR-3 (ovarian cancer)): < 10%
inhibition at 10 µM (SK-MEL-5 (melanoma)): < 10%
inhibition at 10 µM (HCC-2998 (colon cancer)): < 10%
inhibition at 10 µM (CAKI-1 (renal cancer)): 16.2%
inhibition at 10 µM (DU-145 (prostate cancer)): < 10%
inhibition at 10 µM (SNB-19 (CNS cancer)): < 10%
inhibition at 10 µM (M14 (melanoma)): 13.2%
inhibition at 10 µM (OVCAR-4 (ovarian cancer)): < 10%
inhibition at 10 µM (LOX IMVI (melanoma)): < 10%
inhibition at 10 µM (COLO 205 (colon cancer)): < 10%
inhibition at 10 µM [1]: < 10%
inhibition at 10 µM (RXF 393 (renal cancer)): < 10%
inhibition at 10 µM (OVCAR-5 (ovarian cancer)): < 10%
cytotoxic activity over the cell lines (in words) [2]: limited cytotoxic activity
inhibition at 10 µM (MDA-MB-435 (melanoma)): < 10%
inhibition at 10 µM (U251 (CNS cancer)): < 10%
inhibition at 10 µM (TK-10 (renal cancer)): < 10%
inhibition at 10 µM [3]: < 10%
inhibition at 10 µM (SK-MEL-2 (melanoma)): < 10%
inhibition at 10 µM (HCT-116 (colon cancer)): < 10%
inhibition at 10 µM [4]: < 10%
inhibition at 10 µM (SF-268 (CNS cancer)): < 10%
inhibition at 10 µM (SW-620 (colon cancer)): < 10%
